Values joined by “and” are separate entries in the source; they are usually repeats but may differ in a detail not shown here. Equal values may be shown once.
What was measured:
human pancreatic IB PLA2 [1] = target: T1, human pancreatic IB PLA2 (Homo sapiens, UniProt P04054); assay: Rate-lowering of hydrolysis of DMPC + 0.05 mole fraction cholate vesicles by human pancreatic PLA2; type: biochemical; details: 0.03 mole fraction; DMPC + 0.05 mole fraction cholate
T1 construct: gift of Dr. Suren Tatulian (Orlando, Fla.)
T1 sequence (P04054 23-148): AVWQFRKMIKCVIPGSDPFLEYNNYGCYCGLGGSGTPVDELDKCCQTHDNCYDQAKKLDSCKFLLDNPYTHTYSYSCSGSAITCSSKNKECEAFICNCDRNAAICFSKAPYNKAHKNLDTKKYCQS
From the text: (§1) Independent support for selective binding of the rate lowering compounds to a regulatory site on PLA2 comes from the rate-lowering effect of such compounds on the hydrolysis of DMPC vesicles containing 0.05 mole fraction cholate.
(§2) Scores of other compounds in guggul were not active.

pig pancreatic IB PLA2 = target: T2, pig pancreatic IB PLA2 (Sus scrofa, UniProt P00592); assay: Rate-lowering of hydrolysis of DMPC + 0.05 mole fraction cholate vesicles by pig pancreatic PLA2; type: biochemical
T2 construct: made in house
T2 sequence (P00592 23-146): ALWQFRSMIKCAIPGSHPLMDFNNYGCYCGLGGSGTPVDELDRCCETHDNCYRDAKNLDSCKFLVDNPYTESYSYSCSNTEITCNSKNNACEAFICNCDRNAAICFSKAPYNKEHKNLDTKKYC
From the text: as §1, §2

WT (wild type) pig PLA2 = target: T3, WT (wild type) pig PLA2 (Sus scrofa, UniProt P00592); assay: PLA2 catalyzed hydrolysis of sonicated DMPC vesicles with added bile salt (pH-stat); type: biochemical; details: for effect of bile salt on the rate of hydrolysis (monophasic/biphasic): DMPC vesicles, pancreatic PLA2
T3 construct: made in house
T3 sequence (P00592 23-146): as above
Protocol: Aqueous dispersion of phospholipid was sonicated in a bath type sonicator. Virtually transparent suspension was annealed for at least 4 hours at room temperature before use. Reaction progress for the PLA2 catalyzed hydrolysis of sonicated DMPC (1 mM) vesicles was measured by pH-stat titration (Radiometer) with 1 mM 2-aminopropanediol in 4 ml reaction buffer containing 5 mM CaCl2 for DMPC (or 0.5 mM for DMPM), 1 mM NaCl, […] atmosphere. Reaction was initiated by adding 0.1 μg enzyme in 1-10 μl solution. The pH stat method was also used for monitoring the rate of hydrolysis of DMPM (0.4 mM) vesicles in the presence of polymyxin [27-29], or of the mixed-micelles of POPC with bile salts in 1:2 ratio [13, 30].
Delay before the onset of the stationary phase of the PLA2 catalyzed reaction progress for the hydrolysis of zwitterionic phospholipids has been extensively characterized. […] The apparent rates in FIG. 3 were obtained from the initial slopes of such reaction progress during which <5% of the total substrate is hydrolyzed.
The CMC of the bile salts used in this study range between 0.8 to 5 mM.

PLA2 (3W)(WT) = target: T4, PLA2 (3W)(WT) (Sus scrofa, UniProt P00592); assay: Bile salt binding by Trp emission, (3W)(WT) PLA2; set-up: species or system pig; details: read-out: KEB
T4 construct: made in house
T4 sequence (P00592 23-146): as above
Protocol: (§3) Fluorescence emission spectrum or time course of the intensity change from tryptophan or the resonance energy transfer probe TMA-DPH were measured in the ratio mode on SLM-Aminco AB2 in a 1 cm cuvette [31, 32] in 1.6 ml stirred buffer containing 1 or 2 μM PLA2 in 10 mM Tris, 5 mM CaCl2 and 20 mM NaCl at pH 8.0 and 24° C. The slit-widths were 4 nm with excitation at 280.
(§4) As shown in [45], the binding of decylsulfate to the R site is accompanied by a modest increase in the emission intensity from Trp-3. […] As summarized in Table 2, the value of KEB depends on the position of Trp, although Hill coefficient remains 1. […] Note that KEB for the EB complex of ΔPLA2 is about 7-fold larger than that for PLA2.

PLA2 R6M = PLA2 R6M (Sus scrofa, UniProt P00592, R28M); assay: Bile salt binding by Trp emission, R6M PLA2; set-up: species or system pig; details: read-out: KEB
Sequence of PLA2 R6M (P00592 23-146 R28M): as the sequence (P00592 23-146) above, with R6M counted along it
Protocol: as §3, §4

PLA2 K10M = PLA2 K10M (Sus scrofa, UniProt P00592, K32M); assay: Bile salt binding by Trp emission, K10M PLA2; set-up: species or system pig; details: read-out: KEB
Sequence of PLA2 K10M (P00592 whole entry K32M): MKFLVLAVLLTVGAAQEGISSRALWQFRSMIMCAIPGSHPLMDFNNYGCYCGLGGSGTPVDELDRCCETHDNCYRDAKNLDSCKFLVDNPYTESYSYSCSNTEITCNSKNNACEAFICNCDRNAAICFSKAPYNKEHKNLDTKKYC
Protocol: as §3, §4

PLA2 R6M/K10M = PLA2 R6M/K10M (Sus scrofa, UniProt P00592, K32M/R28M); assay: Bile salt binding by Trp emission, R6M/K10M PLA2; set-up: species or system pig; details: read-out: KEB
Sequence of PLA2 R6M/K10M (P00592 23-146 R28M/K32M): as the sequence (P00592 23-146) above, with R6M, K10M counted along it
Protocol: as §3, §4

PLA2 L2W/W3F = target: T5, PLA2 L2W/W3F (Sus scrofa, UniProt P00592, L24W/W25F); assay: Bile salt binding by Trp emission, L2W/W3F PLA2; set-up: species or system pig; details: read-out: KEB
T5 construct: made in house
T5 sequence (P00592 23-146 L24W/W25F): as the sequence (P00592 23-146) above, with L2W, W3F counted along it
Protocol: as §3, §4

PLA2 R6W/W3F = target: T6, PLA2 R6W/W3F (Sus scrofa, UniProt P00592, R28W/W25F); assay: Bile salt binding by Trp emission, R6W/W3F PLA2; set-up: species or system pig; details: read-out: KEB
T6 construct: made in house
T6 sequence (P00592 23-146 W25F/R28W): as the sequence (P00592 23-146) above, with W3F, R6W counted along it
Protocol: as §3, §4

PLA2 K10W/W3F = target: T7, PLA2 K10W/W3F (Sus scrofa, UniProt P00592, K32W/W25F); assay: Bile salt binding by Trp emission, K10W/W3F PLA2; set-up: species or system pig; details: read-out: KEB
T7 construct: made in house
T7 sequence (P00592 23-146 W25F/K32W): as the sequence (P00592 23-146) above, with W3F, K10W counted along it
Protocol: as §3, §4

PLA2 L19W/W3F = target: T8, PLA2 L19W/W3F (Sus scrofa, UniProt P00592, L41W/W25F); assay: Bile salt binding by Trp emission, L19W/W3F PLA2; set-up: species or system pig; details: read-out: KEB
T8 construct: made in house
T8 sequence (P00592 23-146 W25F/L41W): as the sequence (P00592 23-146) above, with W3F, L19W counted along it
Protocol: as §3, §4

PLA2 M20W/W3F = target: T9, PLA2 M20W/W3F (Sus scrofa, UniProt P00592, M42W/W25F); assay: Bile salt binding by Trp emission, M20W/W3F PLA2; set-up: species or system pig; details: read-out: KEB
T9 construct: made in house
T9 sequence (P00592 23-146 W25F/M42W): as the sequence (P00592 23-146) above, with W3F, M20W counted along it
Protocol: as §3, §4

PLA2 K53W/W3F = target: T10, PLA2 K53W/W3F (Sus scrofa, UniProt P00592, R75W/W25F); assay: Bile salt binding by Trp emission, K53W/W3F PLA2; set-up: species or system pig; details: read-out: KEB
T10 construct: made in house
T10 sequence (P00592 23-146 W25F/R75W): as the sequence (P00592 23-146) above, with W3F, R53W counted along it
Protocol: as §3, §4

PLA2 K56W/W3F = target: T11, PLA2 K56W/W3F (Sus scrofa, UniProt P00592, K78W/W25F); assay: Bile salt binding by Trp emission, K56W/W3F PLA2; set-up: species or system pig; details: read-out: KEB
T11 construct: made in house
T11 sequence (P00592 23-146 W25F/K78W): as the sequence (P00592 23-146) above, with W3F, K56W counted along it
Protocol: as §3, §4

PLA2 K87W/W3F = target: T12, PLA2 K87W/W3F (Sus scrofa, UniProt P00592, K109W/W25F); assay: Bile salt binding by Trp emission, K87W/W3F PLA2; set-up: species or system pig; details: read-out: KEB
T12 construct: made in house
T12 sequence (P00592 23-146 W25F/K109W): as the sequence (P00592 23-146) above, with W3F, K87W counted along it
Protocol: as §3, §4

PLA2 [2] = target: T13, PLA2 (Sus scrofa, UniProt P00592); assay: Isothermal calorimetric titration of PLA2 with bile salt; type: binding, pig; details: ITC, 8.5 μM PLA2; for Kd: read-out: KEB
T13 construct: made in house
T13 sequence (P00592 23-146): as the sequence (P00592 23-146) above
Protocol: ITC titration of PLA2 with <1 mM (below the CMC) bile salt stock solution was carried out on the Microcal calorimeter (model VP-itc) with cell volume of 1.42 ml with stirring at 300 rpm. Successive injections were made every 5 min. Standard software was used for the peak integration. The heat change with the internal calibration associated with the dilution of the titrant in the […] was subtracted from the heat change obtained by the injection of the bile salt in the presence of 8.5 μM PLA2. The net heat change per injection in the presence of PLA2 was integrated to obtain the total heat change as a function of the total added amphiphile concentration.

PLA2 [3] = target: T13, PLA2; assay: Quenching of RET signal from TMA-DPH bound to PLA2 by bile salts; type: binding, pig; details: 1 μM PLA2 and TMA-DPH, pH 8.0
Protocol: as §3

PLA2 [4] = target: T13, PLA2; assay: PLA2 catalyzed hydrolysis of mixed micelles of POPC with bile salts; type: biochemical, pig; details: 1 mM POPC, 0.7 mole fraction bile salt
Protocol: (§5) Aqueous dispersion of phospholipid was sonicated in a bath type sonicator. Virtually transparent suspension was annealed for at least 4 hours at room temperature before use. Reaction progress for the PLA2 catalyzed hydrolysis of sonicated DMPC (1 mM) vesicles was measured by pH-stat titration (Radiometer) with 1 mM 2-aminopropanediol in 4 ml reaction buffer containing 5 mM CaCl2 for DMPC (or 0.5 mM for DMPM), 1 mM NaCl, and 0.1 mM EDTA at pH 8.0 and 24° C. in the nitrogen purged closed atmosphere. Reaction was initiated by adding 0.1 μg enzyme in 1-10 μl solution. The pH stat method was also used for monitoring the rate of hydrolysis of DMPM (0.4 mM) vesicles in the presence of polymyxin [27-29], or of the mixed-micelles of POPC with bile salts in 1:2 ratio [13, 30].

human pancreatic IB PLA2 [5] = target: T1, human pancreatic IB PLA2; assay: Hydrolysis of DMPC vesicles by human IB PLA2 with added bile salt; type: biochemical; details: 1 mM DMPC
Protocol: as §5

Compound: CC(=CCCC(C)C1CCC2(C)C3=CCC4C(C)(C)C(O)CCC4(C)C3CCC12C)C(=O)O (stereo not drawn) [Masticadienolic acid]
- Relative Rate-lowering (%) Activity, hPLA2 (human pancreatic IB PLA2 [1]): 66%
- Relative Rate-lowering (%) Activity, pPLA2 (pig pancreatic IB PLA2; 0.03 mole fraction, DMPC + 0.05 mole fraction cholate): >95%
- relative effectiveness in lowering the rate with pig pancreatic PLA2 (pig pancreatic IB PLA2; DMPC vesicles containing 0.05 mole fraction cholate, FIG. 6): effective by another factor of ten

Compound: C[C@H](CCC(=O)NCCS(=O)(=O)O)[C@H]1CC[C@H]2[C@@H]3CC[C@@H]4C[C@H](O)CC[C@]4(C)[C@H]3C[C@H](O)[C@]12C [TDOC, taurodeoxycholate]
- effect of bile salt on the rate of hydrolysis (monophasic/biphasic) (WT (wild type) pig PLA2): biphasic effect
- Kd (PLA2 (3W)(WT)): 30 µM
- Kd (PLA2 R6M): > 100 µM
- Kd (PLA2 K10M): > 100 µM
- Kd (PLA2 R6M/K10M): 10 µM
- Kd (PLA2 L2W/W3F): 20 µM
- Kd (PLA2 R6W/W3F): 4 µM
- Kd (PLA2 K10W/W3F): 10 µM
- Kd (PLA2 L19W/W3F): 44 µM
- Kd (PLA2 M20W/W3F): 2 µM
- Kd (PLA2 K53W/W3F): 33 µM
- Kd (PLA2 K56W/W3F): 35 µM
- Kd (PLA2 K87W/W3F): 2 µM

Compound: C[C@H](CCC(=O)NCCS(=O)(=O)O)[C@H]1CC[C@H]2[C@@H]3[C@@H](O)C[C@@H]4C[C@H](O)CC[C@]4(C)[C@H]3CC[C@]12C [TUDOC, tauroursodeoxycholate]
- effect of bile salt on the rate of hydrolysis (monophasic/biphasic) (WT (wild type) pig PLA2): biphasic effect
- Kd (PLA2 [2]): < 2 µM
- efficacy to quench RET signal from TMA-DPH bound to PLA2 (PLA2 [3]): most effective

Compound: C[C@H](CCC(=O)O)[C@H]1CC[C@H]2[C@@H]3[C@@H](O)C[C@@H]4C[C@H](O)CC[C@]4(C)[C@H]3CC[C@]12C [UDOC, ursodeoxycholate]
- Kd (PLA2 [2]): 2 to 38 µM and 37 µM

Compound: C[C@H](CCC(=O)O)[C@H]1CC[C@H]2[C@@H]3[C@H](O)C[C@@H]4C[C@H](O)CC[C@]4(C)[C@H]3C[C@H](O)[C@]12C [cholate, reference compound]
- peak rate of hydrolysis of DMPC vesicles (WT (wild type) pig PLA2; 1 mM DMPC, 24° C., cholate above 0.04 mM): 140 s⁻¹
- effect of bile salt on the rate of hydrolysis (monophasic/biphasic) (WT (wild type) pig PLA2): only a rate increase
- initial rate of hydrolysis of POPC in mixed micelles (PLA2 [4]): 150 s⁻¹
- effect on rate of hydrolysis of DMPC vesicles by human pancreatic IB PLA2 (human pancreatic IB PLA2 [5]): increases
- heat change on titration of PLA2 (PLA2 [2]): No heat change
- efficacy to quench RET signal from TMA-DPH bound to PLA2 (PLA2 [3]): least effective

Compound: C[C@H](CCC(=O)NCC(=O)O)[C@H]1CC[C@H]2[C@@H]3[C@H](O)C[C@@H]4C[C@H](O)CC[C@]4(C)[C@H]3C[C@H](O)[C@]12C [glycocholate]
- effect of bile salt on the rate of hydrolysis (monophasic/biphasic) (WT (wild type) pig PLA2): biphasic effect
